In PMC9133015 (Nature Communications, 2022):
“And” between values parts separate entries of the source, which are not always exact repeats. Identical values can stand only once. Like-named read-outs stand apart in the source and are kept apart here.

Tests used:
Assay in all cases: Kinase inhibitor specificity profiling (Reaction Biology Corporation)
Assay type in all cases: biochemical
Design in all cases: % Enzyme Activity (relative to DMSO controls): concentration or dose not given beside the values
[1] = molecular target: T1, panel of 370 protein kinases (Homo sapiens, UniProt Q8TDC3); settings: 2 h, kinase BRSK1; read-out: % Enzyme Activity (relative to DMSO controls)
T1 construct: purchased Reaction Biology Corporation (assay service)

[2] = molecular target: T2, panel of 370 protein kinases (Homo sapiens, UniProt Q96NX5); settings: 2 h, kinase CAMK1g; read-out: % Enzyme Activity (relative to DMSO controls)
T2 construct: purchased Reaction Biology Corporation (assay service)

[3] = molecular target: T3, panel of 370 protein kinases (Homo sapiens, UniProt P51955); settings: 2 h, kinase NEK2; read-out: % Enzyme Activity (relative to DMSO controls)
T3 construct: purchased Reaction Biology Corporation (assay service)

[4] = molecular target: T4, panel of 370 protein kinases (Homo sapiens, UniProt Q9Y463); settings: 2 h, kinase DYRK1B; read-out: % Enzyme Activity (relative to DMSO controls)
T4 construct: purchased Reaction Biology Corporation (assay service)

[5] = molecular target: T5, panel of 370 protein kinases (Homo sapiens, UniProt Q04771); settings: 2 h, kinase ALK2/ACVR1; read-out: % Enzyme Activity (relative to DMSO controls)
T5 construct: purchased Reaction Biology Corporation (assay service)

[6] = molecular target: T6, panel of 370 protein kinases (Homo sapiens, UniProt P46734); settings: 2 h, kinase MEK3; read-out: % Enzyme Activity (relative to DMSO controls)
T6 construct: purchased Reaction Biology Corporation (assay service)

[7] = molecular target: T7, panel of 370 protein kinases (Homo sapiens, UniProt Q6PHR2); settings: kinase ULK3
T7 construct: purchased Reaction Biology Corporation (assay service)

[8] = molecular target: T8, panel of 370 protein kinases (Homo sapiens, UniProt Q9H2K8); settings: 2 h, kinase TAOK3/JIK; read-out: % Enzyme Activity (relative to DMSO controls)
T8 construct: purchased Reaction Biology Corporation (assay service)

[9] = molecular target: T9, panel of 370 protein kinases (Homo sapiens, UniProt Q76MJ5); settings: 2 h, kinase ERN2/IRE2; read-out: % Enzyme Activity (relative to DMSO controls)
T9 construct: purchased Reaction Biology Corporation (assay service)

[10] = molecular target: T10, panel of 370 protein kinases (Homo sapiens, UniProt O60307); settings: 2 h, kinase MAST3; read-out: % Enzyme Activity (relative to DMSO controls)
T10 construct: purchased Reaction Biology Corporation (assay service)

[11] = molecular target: T11, panel of 370 protein kinases (Homo sapiens, UniProt P17612); settings: 2 h, kinase PKA; read-out: % Enzyme Activity (relative to DMSO controls)
T11 construct: purchased Reaction Biology Corporation (assay service)

[12] = molecular target: T12, panel of 370 protein kinases (Homo sapiens, UniProt Q13873); settings: kinase BMPR2
T12 construct: purchased Reaction Biology Corporation (assay service)

[13] = molecular target: T13, panel of 370 protein kinases (Homo sapiens, UniProt Q14680); settings: 2 h, kinase MELK; read-out: % Enzyme Activity (relative to DMSO controls)
T13 construct: purchased Reaction Biology Corporation (assay service)

[14] = molecular target: T14, panel of 370 protein kinases (Homo sapiens, UniProt P15056); settings: 2 h, kinase BRAF; read-out: % Enzyme Activity (relative to DMSO controls)
T14 construct: purchased Reaction Biology Corporation (assay service)

[15] = molecular target: T15, panel of 370 protein kinases (Homo sapiens, UniProt P07948); settings: 2 h, kinase LYN; read-out: % Enzyme Activity (relative to DMSO controls)
T15 construct: purchased Reaction Biology Corporation (assay service)

[16] = molecular target: T16, panel of 370 protein kinases (Homo sapiens, UniProt Q92630); settings: 2 h, kinase DYRK2; read-out: % Enzyme Activity (relative to DMSO controls)
T16 construct: purchased Reaction Biology Corporation (assay service)

[17] = molecular target: T17, panel of 370 protein kinases (Homo sapiens, UniProt Q15208); settings: 2 h, kinase STK38/NDR1; read-out: % Enzyme Activity (relative to DMSO controls)
T17 construct: purchased Reaction Biology Corporation (assay service)

[18] = molecular target: T18, panel of 370 protein kinases (Homo sapiens, UniProt P11802); settings: 2 h, read-out: % Enzyme Activity (relative to DMSO controls)
T18 construct: purchased Reaction Biology Corporation (assay service)

[19] = test system: panel of 370 protein kinases
[20] = molecular target: T19, panel of 370 protein kinases (Homo sapiens, UniProt P08631); settings: 2 h, kinase HCK; read-out: % Enzyme Activity (relative to DMSO controls)
T19 construct: purchased Reaction Biology Corporation (assay service)

[21] = molecular target: T20, panel of 370 protein kinases (Homo sapiens, UniProt Q9HBY8); settings: 2 h, kinase SGK2; read-out: % Enzyme Activity (relative to DMSO controls)
T20 construct: purchased Reaction Biology Corporation (assay service)
T20 sequence (Q9HBY8 whole entry): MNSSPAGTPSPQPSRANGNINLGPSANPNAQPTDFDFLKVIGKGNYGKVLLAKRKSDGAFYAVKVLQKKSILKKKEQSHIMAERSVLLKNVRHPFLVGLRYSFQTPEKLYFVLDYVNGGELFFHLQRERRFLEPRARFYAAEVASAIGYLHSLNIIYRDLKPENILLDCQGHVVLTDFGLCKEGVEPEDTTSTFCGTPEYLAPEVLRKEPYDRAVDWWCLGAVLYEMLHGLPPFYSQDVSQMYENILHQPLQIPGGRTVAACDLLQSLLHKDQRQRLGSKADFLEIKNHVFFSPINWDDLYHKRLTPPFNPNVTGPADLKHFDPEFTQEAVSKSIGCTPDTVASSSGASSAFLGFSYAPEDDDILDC

T18 sequence (P11802 whole entry): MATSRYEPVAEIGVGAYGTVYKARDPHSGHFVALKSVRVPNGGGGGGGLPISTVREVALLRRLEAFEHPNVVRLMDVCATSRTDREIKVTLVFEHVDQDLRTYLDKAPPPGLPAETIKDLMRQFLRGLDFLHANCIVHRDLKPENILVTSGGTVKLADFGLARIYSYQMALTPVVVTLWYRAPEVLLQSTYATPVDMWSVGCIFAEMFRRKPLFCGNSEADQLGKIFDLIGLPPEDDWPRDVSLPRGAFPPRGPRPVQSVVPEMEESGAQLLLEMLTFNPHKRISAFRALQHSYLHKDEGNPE
T7 sequence (Q6PHR2 whole entry): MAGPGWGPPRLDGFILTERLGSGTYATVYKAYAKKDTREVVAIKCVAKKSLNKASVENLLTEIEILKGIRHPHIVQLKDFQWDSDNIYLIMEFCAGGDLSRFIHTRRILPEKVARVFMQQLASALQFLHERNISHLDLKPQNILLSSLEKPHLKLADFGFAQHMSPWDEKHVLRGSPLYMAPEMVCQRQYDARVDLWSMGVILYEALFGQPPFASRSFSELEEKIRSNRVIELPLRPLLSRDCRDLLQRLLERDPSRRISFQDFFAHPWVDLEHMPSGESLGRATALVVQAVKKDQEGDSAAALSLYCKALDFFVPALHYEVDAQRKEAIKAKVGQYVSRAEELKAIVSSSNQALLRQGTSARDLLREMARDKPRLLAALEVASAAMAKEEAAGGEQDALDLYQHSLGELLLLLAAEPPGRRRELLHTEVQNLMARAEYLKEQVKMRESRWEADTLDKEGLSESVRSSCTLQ
T12 sequence (Q13873 27-1038): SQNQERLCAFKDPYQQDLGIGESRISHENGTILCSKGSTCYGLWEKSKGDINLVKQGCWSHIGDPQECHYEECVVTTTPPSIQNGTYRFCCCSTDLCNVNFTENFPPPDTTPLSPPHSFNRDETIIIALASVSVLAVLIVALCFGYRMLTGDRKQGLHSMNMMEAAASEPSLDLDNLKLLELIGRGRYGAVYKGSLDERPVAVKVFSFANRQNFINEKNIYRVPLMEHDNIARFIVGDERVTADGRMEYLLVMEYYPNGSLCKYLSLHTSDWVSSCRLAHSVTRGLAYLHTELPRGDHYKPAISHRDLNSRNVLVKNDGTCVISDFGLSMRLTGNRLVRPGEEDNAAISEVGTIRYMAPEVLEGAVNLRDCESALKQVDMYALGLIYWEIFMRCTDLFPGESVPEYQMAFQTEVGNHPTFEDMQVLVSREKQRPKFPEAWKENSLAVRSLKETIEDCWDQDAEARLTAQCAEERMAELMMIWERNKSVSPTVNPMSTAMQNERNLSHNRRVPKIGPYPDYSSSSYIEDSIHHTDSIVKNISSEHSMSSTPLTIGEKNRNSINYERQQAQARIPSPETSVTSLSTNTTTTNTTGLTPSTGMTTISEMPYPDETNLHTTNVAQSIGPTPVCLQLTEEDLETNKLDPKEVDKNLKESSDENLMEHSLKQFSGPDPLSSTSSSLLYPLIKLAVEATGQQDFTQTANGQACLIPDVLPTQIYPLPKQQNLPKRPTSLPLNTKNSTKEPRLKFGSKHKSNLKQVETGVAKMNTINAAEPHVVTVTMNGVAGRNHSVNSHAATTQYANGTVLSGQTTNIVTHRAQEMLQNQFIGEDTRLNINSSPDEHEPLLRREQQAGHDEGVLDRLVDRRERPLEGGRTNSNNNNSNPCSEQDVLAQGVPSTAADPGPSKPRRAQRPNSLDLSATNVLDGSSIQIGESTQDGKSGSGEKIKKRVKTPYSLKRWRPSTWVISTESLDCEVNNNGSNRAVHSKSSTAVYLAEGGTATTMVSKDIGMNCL
T17 sequence (Q15208 whole entry): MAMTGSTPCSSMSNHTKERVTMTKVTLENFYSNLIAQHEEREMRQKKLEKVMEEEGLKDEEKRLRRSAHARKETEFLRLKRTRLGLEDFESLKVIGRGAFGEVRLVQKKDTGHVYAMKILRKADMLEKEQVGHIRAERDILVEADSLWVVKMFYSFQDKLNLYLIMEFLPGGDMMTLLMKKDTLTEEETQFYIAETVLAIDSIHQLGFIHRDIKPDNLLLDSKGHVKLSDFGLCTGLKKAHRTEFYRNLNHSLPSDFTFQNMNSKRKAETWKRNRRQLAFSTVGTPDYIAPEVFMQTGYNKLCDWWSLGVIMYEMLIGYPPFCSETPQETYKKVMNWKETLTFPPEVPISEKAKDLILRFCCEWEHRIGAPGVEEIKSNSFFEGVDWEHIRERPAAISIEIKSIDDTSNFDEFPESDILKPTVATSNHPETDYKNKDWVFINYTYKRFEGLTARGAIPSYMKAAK
T8 sequence (Q9H2K8 whole entry): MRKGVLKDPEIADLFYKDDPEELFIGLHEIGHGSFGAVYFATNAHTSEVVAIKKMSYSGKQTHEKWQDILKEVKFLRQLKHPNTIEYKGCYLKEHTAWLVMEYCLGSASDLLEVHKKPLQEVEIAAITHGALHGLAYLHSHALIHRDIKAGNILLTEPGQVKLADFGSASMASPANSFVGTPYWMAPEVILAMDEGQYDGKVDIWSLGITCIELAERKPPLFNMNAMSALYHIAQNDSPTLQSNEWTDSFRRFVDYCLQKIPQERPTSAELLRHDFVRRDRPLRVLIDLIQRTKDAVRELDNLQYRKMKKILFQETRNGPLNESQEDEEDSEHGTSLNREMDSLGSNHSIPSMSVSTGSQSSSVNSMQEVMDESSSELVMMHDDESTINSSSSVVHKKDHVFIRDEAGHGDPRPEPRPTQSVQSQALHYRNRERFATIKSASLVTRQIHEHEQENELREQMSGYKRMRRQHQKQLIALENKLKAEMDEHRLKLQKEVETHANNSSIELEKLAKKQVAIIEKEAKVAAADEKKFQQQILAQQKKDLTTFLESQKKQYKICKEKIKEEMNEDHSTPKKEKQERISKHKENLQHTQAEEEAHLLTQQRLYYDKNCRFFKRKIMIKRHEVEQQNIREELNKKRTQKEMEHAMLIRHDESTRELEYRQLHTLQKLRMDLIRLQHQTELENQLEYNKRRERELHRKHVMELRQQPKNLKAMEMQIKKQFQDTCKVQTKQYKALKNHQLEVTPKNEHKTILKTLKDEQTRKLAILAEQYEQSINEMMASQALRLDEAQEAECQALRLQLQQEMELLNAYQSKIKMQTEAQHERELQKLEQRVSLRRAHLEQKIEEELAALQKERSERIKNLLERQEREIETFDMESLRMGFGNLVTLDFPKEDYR
T3 sequence (P51955 whole entry): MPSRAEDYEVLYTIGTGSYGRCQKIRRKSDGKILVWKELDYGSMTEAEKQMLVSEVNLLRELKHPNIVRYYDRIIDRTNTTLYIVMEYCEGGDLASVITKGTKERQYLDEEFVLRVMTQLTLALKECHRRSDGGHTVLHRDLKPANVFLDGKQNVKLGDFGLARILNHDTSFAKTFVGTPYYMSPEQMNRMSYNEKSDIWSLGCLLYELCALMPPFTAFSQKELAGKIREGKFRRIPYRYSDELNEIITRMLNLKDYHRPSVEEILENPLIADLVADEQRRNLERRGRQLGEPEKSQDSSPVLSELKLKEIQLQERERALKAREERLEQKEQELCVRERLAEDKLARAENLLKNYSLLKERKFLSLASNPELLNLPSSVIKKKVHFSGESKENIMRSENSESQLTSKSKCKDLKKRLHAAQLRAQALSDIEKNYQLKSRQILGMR
T6 sequence (P46734 whole entry): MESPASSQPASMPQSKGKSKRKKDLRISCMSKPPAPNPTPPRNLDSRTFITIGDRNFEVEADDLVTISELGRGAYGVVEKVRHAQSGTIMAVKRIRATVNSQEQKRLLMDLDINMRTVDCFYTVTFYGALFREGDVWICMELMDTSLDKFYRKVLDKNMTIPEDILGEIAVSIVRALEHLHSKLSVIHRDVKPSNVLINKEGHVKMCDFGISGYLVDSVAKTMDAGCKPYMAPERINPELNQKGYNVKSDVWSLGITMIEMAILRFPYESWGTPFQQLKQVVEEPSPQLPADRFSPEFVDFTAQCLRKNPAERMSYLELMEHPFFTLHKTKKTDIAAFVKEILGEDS
T5 sequence (Q04771 21-509): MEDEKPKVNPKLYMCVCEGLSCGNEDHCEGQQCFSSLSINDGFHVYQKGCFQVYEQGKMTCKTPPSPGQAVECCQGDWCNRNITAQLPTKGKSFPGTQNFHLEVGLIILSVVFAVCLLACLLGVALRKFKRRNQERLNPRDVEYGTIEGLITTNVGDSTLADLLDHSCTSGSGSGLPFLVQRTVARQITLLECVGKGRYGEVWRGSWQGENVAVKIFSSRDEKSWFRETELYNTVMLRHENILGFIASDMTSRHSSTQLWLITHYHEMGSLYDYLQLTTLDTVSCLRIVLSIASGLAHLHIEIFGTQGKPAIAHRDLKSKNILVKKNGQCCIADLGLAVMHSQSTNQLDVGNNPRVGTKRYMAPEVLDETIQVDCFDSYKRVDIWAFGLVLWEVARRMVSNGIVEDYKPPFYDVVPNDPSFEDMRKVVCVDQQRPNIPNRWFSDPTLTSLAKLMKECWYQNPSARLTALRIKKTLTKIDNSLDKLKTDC

What does the source list for `CCN1CCN(C(=O)c2ccc(Nc3ncc(F)c(-c4ccc5nc(N(C)C)sc5c4)n3)nc2)CC1` [YK-2-69]?
remaining activity at 1 µM [1]: 94%; remaining activity at 1 µM [2]: 56.8%; remaining activity at 1 µM [3]: 94.2%; remaining activity at 1 µM [4]: 40.7%; remaining activity at 1 µM [5]: 160%; remaining activity at 1 µM [6]: 103%; % Enzyme Activity (relative to DMSO controls) [7]: 97.12% and 96.24%; remaining activity at 1 µM [8]: 104%; remaining activity at 1 µM [9]: 88.5%; remaining activity at 1 µM [10]: 88.1%; remaining activity at 1 µM [11]: 98.7%; % Enzyme Activity (relative to DMSO controls) [12]: 80.68% and 76.25%; remaining activity at 1 µM [13]: 101%; remaining activity at 1 µM [14]: 95.2%; remaining activity at 1 µM [15]: 93.9%; remaining activity at 1 µM [16]: 5.23%; remaining activity at 1 µM [17]: 85.5%; remaining activity at 1 µM ([18]; kinase CDK4/cyclin D1): 6.13%; remaining activity at 1 µM ([18]; kinase CDK4/cyclin D3): 11.2%; kinase selectivity against 370 kinases ([19]; 1 µM): selectivity over 360+ kinases; % Enzyme Activity (relative to DMSO controls) ([19]; kinase LYN B): 102.77% and 100.49%; % Enzyme Activity (relative to DMSO controls) ([19]; kinase PKCb2): 92.22% and 91.87%; % Enzyme Activity (relative to DMSO controls) ([19]; kinase PKG1b): 114.44% and 107.54%; remaining activity at 1 µM [20]: 105%; remaining activity at 1 µM [21]: 97.5%
